The text below walks through data of patent US7414061B2, “Aryl-isoxazol-4-yl-imidazole derivatives” (Hoffmann-La Roche Inc., priority 2005, dated 2008).

As usually defined, the Ki is a dissociation constant, usually derived from enzyme kinetics or from competition with a known ligand.

This test addresses T1, GABA A receptor α5β3γ2 (hα5) (Homo sapiens, UniProt P18507+P31644).
T1 construct: expressed in transfected cells; host or cells: HEK293 (transiently transfected), membrane preparation
Kind of test: [3H]flumazenil competition binding assay, human GABA A α5β3γ2. Particulars: displacement of [3H]flumazenil (0.5 nM) from HEK293 cell membranes expressing α5β3γ2; means of two determinations; read-out: Ki[nM] hα5. The protocol:
The affinity of compounds at GABA A receptor subtypes was measured by competition for [3H]flumazenil (85 Ci/mmol; Roche) binding to HEK293 cells expressing rat (stably transfected) or human (transiently transfected) receptors of composition α1β3γ2, α2β3γ2, α3β3γ2 and α5β3γ2.
Cell pellets were suspended in Krebs-tris buffer (4.8 mM KCl, 1.2 mM CaCl2, 1.2 mM MgCl2, 120 mM NaCl, 15 mM Tris; pH 7.5; binding assay buffer), homogenized by polytron for ca. 20 sec on ice and centrifuged for 60 min at 4° C. (50000 g; Sorvall, rotor: SM24=20000 rpm). The cell pellets were resuspended in Krebs-tris buffer and homogenized by polytron for ca. 15 sec on ice. Protein was measured (Bradford method, Bio-Rad) and aliquots of 1 mL were prepared and stored at −80° C.
Radioligand binding assays were carried out in a volume of […] (96-well plates) which contained […] of cell membranes, [3H]flumazenil at a concentration of 1 nM for α1, α2, α3 subunits and 0.5 nM for α5 subunits and the test compound in the range of […]. Nonspecific binding was defined by 10^−5 M diazepam and typically represented less than 5% of the total binding. Assays were incubated to equilibrium for 1 hour at 4° C. and harvested onto GF/C uni-filters (Packard) by filtration using a Packard harvester and washing with ice-cold wash buffer (50 mM Tris; pH 7.5). After drying, filter-retained radioactivity was detected by liquid scintillation counting. Ki values were calculated using Excel-Fit (Microsoft) and are the means of two determinations.

On to `Cc1onc(-c2ccccc2)c1-c1cn(-c2ccc([N+](=O)[O-])cc2)c(C=O)n1` [Example 149, 4-(5-Methyl-3-phenyl-isoxazol-4-yl)-1-(4-nitro-phenyl)-1H-imidazole-2-carbaldehyde], for which the inhibition constant Ki came out at 29.9 nM. On to `Cc1ccc(COCc2nc(-c3c(-c4ccccc4)noc3C)cn2-c2ccc([N+](=O)[O-])cc2)cc1` [Example 153, 5-Methyl-4-[2-(4-methyl-benzyloxymethyl)-1-(4-nitro-phenyl)-1H-imidazol-4-yl]-3-phenyl-isoxazole], for which the Ki amounted to 17.3 nM. Then `Cc1onc(-c2ccccc2)c1-c1cn(-c2ccc([N+](=O)[O-])cc2)c(COCc2ccc(F)cc2)n1` [Example 154, 4-[2-(4-Fluoro-benzyloxymethyl)-1-(4-nitro-phenyl)-1H-imidazol-4-yl]-5-methyl-3-phenyl-isoxazole], with 13.5 nM; and `Cc1onc(-c2ccccc2)c1-c1cn(-c2ccc([N+](=O)[O-])cc2)c(COCc2cccc(F)c2)n1` [Example 158, 4-[2-(3-Fluoro-benzyloxymethyl)-1-(4-nitro-phenyl)-1H-imidazol-4-yl]-5-methyl-3-phenyl-isoxazole], with 17 nM; and `Cc1onc(-c2ccccc2)c1-c1cn(-c2ccc([N+](=O)[O-])cc2)c(COCc2ccccc2F)n1` [Example 160, 4-[2-(2-Fluoro-benzyloxymethyl)-1-(4-nitro-phenyl)-1H-imidazol-4-yl]-5-methyl-3-phenyl-isoxazole], with 12.7 nM.

Take `Cc1onc(-c2ccccc2)c1-c1cn(-c2ccc([N+](=O)[O-])cc2)c(COCc2ccccn2)n1` [Example 161, 2-[4-(5-Methyl-3-phenyl-isoxazol-4-yl)-1-(4-nitro-phenyl)-1H-imidazol-2-ylmethoxymethyl]-pyridine]: the Ki stood at 16.3 nM. Turning to `Cc1cccc(COCc2nc(-c3c(-c4ccccc4)noc3C)cn2-c2ccc([N+](=O)[O-])cc2)n1` [Example 162, 2-Methyl-6-[4-(5-methyl-3-phenyl-isoxazol-4-yl)-1-(4-nitro-phenyl)-1H-imidazol-2-ylmethoxymethyl]-pyridine], the Ki was 28.2 nM. Then `Cc1onc(-c2ccccc2)c1-c1cn(-c2ccc([N+](=O)[O-])cc2)c(COCc2cccnc2)n1` [Example 163, 3-[4-(5-Methyl-3-phenyl-isoxazol-4-yl)-1-(4-nitro-phenyl)-1H-imidazol-2-ylmethoxymethyl]-pyridine], with 9.5 nM; and `Cc1onc(-c2ccccc2)c1-c1cn(-c2ccc([N+](=O)[O-])cc2)c(COCc2ccc(C(F)(F)F)nc2)n1` [Example 164, 5-[4-(5-Methyl-3-phenyl-isoxazol-4-yl)-1-(4-nitro-phenyl)-1H-imidazol-2-ylmethoxymethyl]-2-trifluoromethyl-pyridine], with 27 nM. As for `Cc1onc(-c2ccccc2)c1-c1cn(-c2ccc([N+](=O)[O-])cc2)c(COCc2ccncc2)n1` [Example 165, 4-[4-(5-Methyl-3-phenyl-isoxazol-4-yl)-1-(4-nitro-phenyl)-1H-imidazol-2-ylmethoxymethyl]-pyridine], the inhibition constant Ki stood at 18.2 nM.
